The target of experiment [1] is T1, FGFR2 (Homo sapiens, UniProt P21802). In words: FGFR2 Kinase Protocol - Condition 1 (Reaction Biology HotSpot radiometric kinase assay). Type of experiment: biochemical. Particulars: 20-min incubation of compound with kinase before ATP; poly[Glu:Tyr] (4:1) 0.2 mg/ml; ATP 100 micromolar; 2 hr room temperature. As for the experimental part: Example 1: FGFR2 Kinase Protocol—Condition 1
The Reaction Biology HotSpot assay platform (http://www.reactionbiology.com) was used to measure kinase/inhibitor interactions as described previously (Anastassiadis et al., 2011). In brief, for each reaction, kinase and substrate were mixed in a buffer containing 20 mM HEPES (pH 7.5), 10 mM MgCl2, 1 mM EGTA, 0.02% Brij35, 0.02 mg/mL BSA, 0.1 mM Na3VO4, 2 mM DTT, and 1% DMSO. All compounds were in powder form and freshly solubilized in DMSO for assays. Compounds were then added to each reaction mixture via acoustic dispense using an ECHO 550 nanoliter dispenser. For Human FGFR2 wildtype testing, a peptide substrate, poly[Glu:Tyr] (4:1) was used to promote the reaction at a concentration of 0.2 mg/ml. For Human FGFR2 (V564F) testing, a peptide substrate, poly[Glu:Tyr] (4:1) was used to promote the reaction at a concentration of 0.2 mg/ml. ATP concentration for all assays was maintained at 100 micromolar. Compounds were tested in 10-dose IC50 mode with a 3-fold serial dilution. After a 20-min incubation, ATP (Sigma-Aldrich, St. Louis, MO 63178) and [g33P] ATP (specific activity 10 microCi/microliter) purchased at PerkinElmer (Boston, MA, 02118 Cat #BLU 003H250UC) were added at a final total concentration of […]. Reactions were carried out at room temperature for 2 hr and spotted onto P81 ion exchange cellulose chromatography paper (Reaction Biology). Filter paper was washed in 0.75% phosphoric acid to remove unincorporated ATP. The percent remaining kinase activity relative to a vehicle-containing (DMSO) kinase reaction was calculated for each kinase/inhibitor pair. IC50 values were calculated using Dotmatics Knowledge Solutions Studies curve fitting (Dotmatics, Bishops Stortford, UK, CM23).

Experiment [2] has as its target T1, FGFR2. In words: FGFR2 Kinase Protocol - Condition 2 (Reaction Biology HotSpot radiometric kinase assay, no preincubation). Type of experiment: biochemical. Particulars: poly[Glu:Tyr] (4:1) 0.2 mg/ml, ATP 100 microM, 2 hr room temperature. In a few lines:
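Ten-point, 3-fold compound dilutions were tested against wildtype or V564F FGFR2 with 100 µM ATP (33P-labelled), no preincubation, and 0.2 mg/ml poly[Glu:Tyr] (4:1) substrate. After 2 hr at room temperature, incorporation was read on P81 filter paper; IC50 fitted from activity remaining relative to vehicle.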

Each structure is given as a SMILES string. Where only a bound is given, the exact number is not on record here.

One may read the IC50 as the point on the concentration scale where inhibition reaches its midpoint.

T1 sequence (P21802 22-821): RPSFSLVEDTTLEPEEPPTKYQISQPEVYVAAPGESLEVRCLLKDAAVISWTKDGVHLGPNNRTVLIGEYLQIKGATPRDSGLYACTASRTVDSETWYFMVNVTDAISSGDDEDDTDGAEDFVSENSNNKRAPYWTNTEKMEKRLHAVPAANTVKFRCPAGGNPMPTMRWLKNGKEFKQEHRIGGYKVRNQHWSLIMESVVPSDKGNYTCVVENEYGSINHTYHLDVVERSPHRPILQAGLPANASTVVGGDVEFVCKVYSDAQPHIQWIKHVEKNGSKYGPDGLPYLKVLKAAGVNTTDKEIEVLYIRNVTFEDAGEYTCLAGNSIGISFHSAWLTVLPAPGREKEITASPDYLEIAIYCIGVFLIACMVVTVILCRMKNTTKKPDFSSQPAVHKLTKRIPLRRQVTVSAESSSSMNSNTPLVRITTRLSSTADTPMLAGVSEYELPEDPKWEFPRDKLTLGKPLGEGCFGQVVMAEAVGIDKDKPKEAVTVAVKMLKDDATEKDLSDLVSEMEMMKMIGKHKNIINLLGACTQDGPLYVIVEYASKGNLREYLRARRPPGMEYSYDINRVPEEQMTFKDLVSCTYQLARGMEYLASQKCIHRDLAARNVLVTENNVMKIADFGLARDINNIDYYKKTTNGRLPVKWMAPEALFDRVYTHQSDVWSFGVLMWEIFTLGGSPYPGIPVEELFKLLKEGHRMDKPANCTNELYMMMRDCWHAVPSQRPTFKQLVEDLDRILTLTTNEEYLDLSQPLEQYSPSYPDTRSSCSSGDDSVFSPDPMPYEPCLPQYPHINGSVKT

Consider `C=CC(=O)N1C[C@@H](n2nc(C#Cc3ccc4c(c3)nc(C)n4C)c3c(N)ncnc32)C[C@@H]1COC` [Example 3, 1-((2R,4S)-4-(4-amino-3-((1,2-dimethyl-1H-benzo[d]imidazol-5-yl)ethynyl)-1H-pyrazolo[3,4-d]pyrimidin-1-yl)-2-(methoxymethyl)pyrrolidin-1-yl)prop-2-en-1-one], for which the IC50 in experiment [1] and in experiment [2] was at most 100 nM in each case.
Turning to `C=CC(=O)N1C[C@@H](n2nc(C#Cc3c(F)cc4c(nc(C)n4C)c3F)c3c(N)nccc32)C[C@@H]1COC` [Example 16, 1-((2R,4S)-4-(4-amino-3-((4,6-difluoro-1,2-dimethyl-1H-benzo[d]imidazol-5-yl)ethynyl)-1H-pyrazolo[4,3-c]pyridin-1-yl)-2-(methoxymethyl)pyrrolidin-1-yl)prop-2-en-1-one], the concentration for half-maximal inhibition (IC50) in experiment [1] and in experiment [2] was at most 100 nM in each case.
As for `C=CC(=O)N1C[C@@H](n2cc(C#Cc3ccc4c(c3)ncn4CC)c3c(N)nccc32)C[C@@H]1COC` [Example 31, 1-((2R,4S)-4-(4-amino-3-((1-ethyl-1H-benzo[d]imidazol-5-yl)ethynyl)-1H-pyrrolo[3,2-c]pyridin-1-yl)-2-(methoxymethyl)pyrrolidin-1-yl)prop-2-en-1-one], the IC50 in experiment [1] was at most 100 nM; in experiment [2], 100 to 1000 nM.
In the same order, the values of `C=CC(=O)N1C[C@@H](n2cc(C#Cc3ccc4nc(C)n(C)c4c3)c3c(N)nccc32)C[C@@H]1COC` [Example 28] are 1000 to 10000 nM and 1000 to 10000 nM.
Consider `C=CC(=O)N1C[C@@H](n2nc(C#Cc3c(F)cc4c(nc(C)n4C)c3F)c3c(N)ncnc32)C[C@@H]1COC` [Example 12, 1-((2R,4S)-4-(4-amino-3-((4,6-difluoro-1,2-dimethyl-1H-benzo[d]imidazol-5-yl)ethynyl)-1H-pyrazolo[3,4-d]pyrimidin-1-yl)-2-(methoxymethyl)pyrrolidin-1-yl)prop-2-en-1-one], for which the IC50 in experiment [1] and in experiment [2] was at most 100 nM throughout.
In the case of `C=CC(=O)N1C[C@@H](n2cc(C#Cc3ccc4c(c3)nc(C)n4C)c3c(N)nccc32)C[C@@H]1COC` [Example 29, 1-((2R,4S)-4-(4-amino-3-((1,2-dimethyl-1H-benzo[d]imidazol-5-yl)ethynyl)-1H-pyrrolo[3,2-c]pyridin-1-yl)-2-(methoxymethyl)pyrrolidin-1-yl)prop-2-en-1-one], the 50% inhibitory concentration (IC50) in experiment [1] was at most 100 nM; in experiment [2], 100 to 1000 nM.
`C=CC(=O)N1C[C@@H](n2nc(C#Cc3ccc4c(c3)nc(C)n4C3CC3)c3c(N)nccc32)C[C@@H]1COC` [Example 17, 1-((2R,4S)-4-(4-amino-3-((1-cyclopropyl-2-methyl-1H-benzo[d]imidazol-5-yl)ethynyl)-1H-pyrazolo[4,3-c]pyridin-1-yl)-2-(methoxymethyl)pyrrolidin-1-yl)prop-2-en-1-one]: the half-maximal inhibitory concentration (IC50) in experiment [1] is at most 100 nM.
The same measure, in the same setting: the figure for `C=CC(=O)N1C[C@@H](n2nc(C#Cc3ccc4[nH]nnc4c3)c3c(N)ncnc32)C[C@@H]1COC` [Example 10, 1-((2R,4S)-4-(3-((1H-benzo[d][1,2,3]triazol-5-yl)ethynyl)-4-amino-1H-pyrazolo[3,4-d]pyrimidin-1-yl)-2-(methoxymethyl)pyrrolidin-1-yl)prop-2-en-1-one] is at most 100 nM.
On to `C=CC(=O)N1C[C@@H](n2nc(C#Cc3c(F)cc4nc(C)[nH]c4c3F)c3c(N)nccc32)C[C@@H]1COC` [Example 18, 1-((2R,4S)-4-(4-amino-3-((5,7-difluoro-2-methyl-1H-benzo[d]imidazol-6-yl)ethynyl)-1H-pyrazolo[4,3-c]pyridin-1-yl)-2-(methoxymethyl)pyrrolidin-1-yl)prop-2-en-1-one], for which, in experiment [1], the IC50 was at most 100 nM.
With `C=CC(=O)N1C[C@@H](n2nc(C#Cc3ccc4c(c3)ncn4C)c3c(N)ncnc32)C[C@@H]1COC` [Example 6, 1-((2R,4S)-4-(4-amino-3-((1-methyl-1H-benzo[d]imidazol-5-yl)ethynyl)-1H-pyrazolo[3,4-d]pyrimidin-1-yl)-2-(methoxymethyl)pyrrolidin-1-yl)prop-2-en-1-one], the IC50 in experiment [1] is at most 100 nM.
On to `C=CC(=O)N1C[C@@H](n2cc(C#Cc3ccc4c(c3)ncn4C3CC3)c3c(N)nccc32)C[C@@H]1COC` [Example 30, 1-((2R,4S)-4-(4-amino-3-((1-cyclopropyl-1H-benzo[d]imidazol-5-yl)ethynyl)-1H-pyrrolo[3,2-c]pyridin-1-yl)-2-(methoxymethyl)pyrrolidin-1-yl)prop-2-en-1-one], for which the figures for the IC50 in experiment [1] and in experiment [2] were at most 100 nM and 100 to 1000 nM, respectively.
Molecule `C=CC(=O)N1C[C@@H](n2nc(C#Cc3ccc4c(c3)ncn4CC)c3c(N)nccc32)C[C@@H]1COC` [Example 23, 1-((2R,4S)-4-(4-amino-3-((1-ethyl-1H-benzo[d]imidazol-5-yl)ethynyl)-1H-pyrazolo[4,3-c]pyridin-1-yl)-2-(methoxymethyl)pyrrolidin-1-yl)prop-2-en-1-one] showed an IC50 in experiment [1] of at most 100 nM.

The record behind these values is US20230374015A1, “INHIBITORS OF FIBROBLAST GROWTH FACTOR RECEPTOR KINASES” (Kinnate Biopharma Inc., priority 2020, published 2023).
